This passage reports lines tolerant results from patent publication US6750378B2, “Maize H3C4 promoter combined with the first intron of rice actin, chimeric gene comprising it and transformed plant” (Rhone-Poulenc Agro, priority 1997, dated 2004).

In assay [1] the test system is maize lines transformed with corresponding gene with maize adh I intron. The experiment in a line: Comparative study of herbicide tolerance, maize lines transformed with the corresponding gene with maize adh I intron. The conditions noted are these: 20 maize lines, spraying 200 g of active material per hectare (600 μg per tub). The format is in vivo. How it is done: (§1) 800 ml of Fontainebleau sand are placed in a tub of sides 15×20 cm. These tubs are then sprinkled with water and kept moist by supplying a nutrient solution consisting of 5 ml of Quinoligo (Quinoline) per liter of water. Twenty maize seeds are placed in the tubs, which are then treated with isoxaflutole by spraying at a rate of 100 g of active material per hectare (300 μg of active material per tub). The tubs are then cultured in a greenhouse. The phytotoxicity is determined 14 [lacuna] after planting. […] A comparative study was carried out with 20 maize lines transformed according to the invention and 20 maize lines transformed with a corresponding gene for which the sequence encoding the first intron of rice actin has been replaced with the sequence encoding the maize adh I intron. After treating by spraying very high doses of isoxafutole at a rate of 200 g of active material per hectare (600 μg of active material per tub), the following results are obtained: […]

Assay [2] has as its system maize lines transformed according to the invention (H3C4 promoter + first intron of rice actin). Nature of the assay: Comparative study of herbicide tolerance, maize lines transformed according to the invention (rice actin intron). The format is in vivo. The conditions noted are these: 20 maize lines, spraying 200 g of active material per hectare (600 μg per tub). The protocol:
as §1

For `CS(=O)(=O)c1cc(C(F)(F)F)ccc1C(=O)c1cnoc1C1CC1` [isoxaflutole], the lines tolerant in assay [1] is listed as 3/20; in assay [2], 8/20.
